What all share (format): cell-based
One assay deals with NCI-H69 cell line. The assay can be described thus: Cell viability assay for NCI-H69 cell line (EZ-Cytox). The conditions noted are these: Homo sapiens, NCI-H69, 120 h; H69 cells, 5 days, 3000 nM to 0.46 nM. An outline of the steps:
(§1)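 Human SCLC lines cultured with compound for 5 days in a CO2 incubator; viability read by EZ-Cytox absorbance at 450 nm after 3 min shaking. IC50 reported in activity bins (A: <30 nM up to E: <400 nM).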

Another assay deals with NCI-H526 cell line. The experiment in a line: Cell viability assay for NCI-H526 cell line (EZ-Cytox). The conditions noted are these: Homo sapiens, NCI-H526, 120 h; H526 cells, 5 days, 3000 nM to 0.46 nM. In a few lines:
as §1

The subject of a further assay is MRC-5 cell line. The experiment in a line: Cell viability assay for MRC-5 cell line (EZ-Cytox). The conditions noted are these: Homo sapiens, MRC5, 120 h; MRC-5 normal cell line, 5 days, 10000 nM to 1.52 nM; read-out: Activity: IC50 value, cell viability, MRC-5 cell line (Exemplary Compounds). The method, then: 4. Cell Viability Assay for MRC-5 Cell Line
(1) Culture of MRC-5 Cell Line
The MRC-5 cell line was purchased from KCLB. Passage of cultured cells was maintained within P15.
(2) Treatment of Compounds of the Present Invention
Then, it was cultured in 37° C. CO2 incubator (Thermo Fisher Scientific) for 5 days.
(3) Cytotoxicity Experiment
CO2 incubator for 4 hours.

For a further assay, the target named is T1, PLK1 (Homo sapiens, UniProt P53350).
T1 construct: endogenous in cells; host or cells: HeLa LgBit (Plk1-HiBit KI): HeLa stably expressing LgBit, with a CRISPR/Cas9 knock-in of HiBit at the endogenous PLK1 locus
T1 sequence (P53350 whole entry): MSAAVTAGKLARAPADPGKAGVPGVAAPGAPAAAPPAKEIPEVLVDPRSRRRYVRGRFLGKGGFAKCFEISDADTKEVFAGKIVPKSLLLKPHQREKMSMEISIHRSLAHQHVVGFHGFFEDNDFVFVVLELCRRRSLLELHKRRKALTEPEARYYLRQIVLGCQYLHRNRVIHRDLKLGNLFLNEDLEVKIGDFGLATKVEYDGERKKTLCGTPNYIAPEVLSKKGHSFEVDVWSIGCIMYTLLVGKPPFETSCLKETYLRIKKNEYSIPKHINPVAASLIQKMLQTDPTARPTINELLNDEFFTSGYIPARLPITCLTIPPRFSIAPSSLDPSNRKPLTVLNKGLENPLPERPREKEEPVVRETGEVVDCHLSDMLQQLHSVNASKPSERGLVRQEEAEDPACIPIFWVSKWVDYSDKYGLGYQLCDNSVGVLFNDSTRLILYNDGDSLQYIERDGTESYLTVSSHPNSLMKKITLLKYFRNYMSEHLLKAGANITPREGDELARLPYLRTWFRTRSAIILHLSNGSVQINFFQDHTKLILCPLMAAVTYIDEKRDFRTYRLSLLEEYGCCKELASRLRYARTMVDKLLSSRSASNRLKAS
The assay can be described thus: Luciferase assay for PLK1 in HeLa LgBit (Plk1-HiBit KI) cell line. The conditions noted are these: 300 nM compound, luminescence after 9 hours. In a few lines:
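HeLa LgBit cells with endogenous PLK1 C-terminally HiBit-tagged by CRISPR knock-in; released from 24 h 2 mM thymidine block, seeded, grown 18 h. Compounds at 300 nM with Endurazine substrate; luminescence (470-480 nm) tracked in real time, expressed as ratio to DMSO.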
On the technique in general: HiBiT is a short tag that completes a luciferase, so light tracks the accessible tagged protein.

What is called IC50 is the concentration that gives 50% inhibition. Regarding `COc1cc(C(=O)NC2CC3(CCN(CC4CCN(c5ccc(NC6CCC(=O)NC6=O)c(F)c5)CC4)CC3)C2)ccc1Nc1ncc2c(n1)N(C1CCCC1)CC(F)(F)C(=O)N2C` (stereo not drawn) [Compound 36, 4-((9-cyclopentyl-7,7-difluoro-5-methyl-6-oxo-6,7,8,9-tetrahydro-5H-pyrimido[4,5-b][1,4]diazepin-2-yl)amino)-N-(7-((1-(4-((2,6-dioxopiperidin-3-yl)amino)-3-fluorophenyl)piperidin-4-yl)methyl)-7-azaspiro[3.5]nonan-2-yl)-3-methoxybenzamide], the results for the IC50 in the assay on NCI-H69 cell line, in the assay with NCI-H526 cell line and with MRC-5 cell line were less than 50 nM, less than 30 nM and more than 10000 nM, respectively. Moreover, at PLK1, the “Activity: ratio of the luminescence value of compound treatment group to DMSO treatment group” value (shortened to “Activity: ratio”) is listed as “+++ (+++: <0.3)”.

Turning to `COc1cc(C(=O)NC2CCN(CCC3CCN(c4ccc(NC5CCC(=O)NC5=O)c(F)c4)CC3)CC2)c(F)cc1Nc1ncc2c(n1)N(C(C)C)CC(F)(F)C(=O)N2C` (stereo not drawn) [Compound 37, 4-((7,7-difluoro-9-isopropyl-5-methyl-6-oxo-6,7,8,9-tetrahydro-5H-pyrimido[4,5-b][1,4]diazepin-2-yl)amino)-N-(1-(2-(1-(4-((2,6-dioxopiperidin-3-yl)amino)-3-fluorophenyl)piperidin-4-yl)ethyl)piperidin-4-yl)-2-fluoro-5-methoxybenzamide], the figures for the IC50 in the assay on NCI-H69 cell line, in the assay on NCI-H526 cell line and with MRC-5 cell line were less than 100 nM, less than 50 nM and more than 10000 nM, respectively. For the same molecule, the “Activity: ratio” value at PLK1 is given as “++ (++: <0.5)”.

Regarding `COc1cc(C(=O)NN2CCC(CCN3CCN(c4ccc(N(C)C5CCC(=O)NC5=O)cc4F)CC3)CC2)ccc1Nc1ncc2c(n1)N(C(C)C)CC(F)(F)C(=O)N2C` (stereo not drawn) [Compound 38, 4-((7,7-difluoro-9-isopropyl-5-methyl-6-oxo-6,7,8,9-tetrahydro-5H-pyrimido[4,5-b][1,4]diazepin-2-yl)amino)-N-(4-(2-(4-(4-((2,6-dioxopiperidin-3-yl)(methyl)amino)-2-fluorophenyl)piperazin-1-yl)ethyl)piperidin-1-yl)-3-methoxybenzamide], the 50% inhibitory concentration (IC50) in the assay on NCI-H69 cell line is less than 30 nM; in the assay on NCI-H526 cell line it was less than 30 nM; in the assay on MRC-5 cell line it was more than 10000 nM. In addition, the “Activity: ratio” value on PLK1 is given as “+++ (+++: <0.3)”.

With `COc1cc(C(=O)NN2CCC(CCN3CCN(c4cc(OC)c(NC5CCC(=O)NC5=O)cc4F)CC3)CC2)ccc1Nc1ncc2c(n1)N(C(C)C)CC(F)(F)C(=O)N2C` (stereo not drawn) [Compound 39, 4-((7,7-difluoro-9-isopropyl-5-methyl-6-oxo-6,7,8,9-tetrahydro-5H-pyrimido[4,5-b][1,4]diazepin-2-yl)amino)-N-(4-(2-(4-(4-((2,6-dioxopiperidin-3-yl)amino)-2-fluoro-5-methoxyphenyl)piperazin-1-yl)ethyl)piperidin-1-yl)-3-methoxybenzamide], the concentration for half-maximal inhibition (IC50) is less than 30 nM in the assay with NCI-H69 cell line, less than 30 nM with NCI-H526 cell line and more than 10000 nM in the assay with MRC-5 cell line. On PLK1, the “Activity: ratio” value was “++ (++: <0.5)”.

For the molecule `COc1cc(C(=O)NN2CCC(CCN3CCN(c4cc(OC)c(NC5CCC(=O)NC5=O)cc4F)CC3)CC2)ccc1Nc1ncc2c(n1)N(C1CCCC1)CC(F)(F)C(=O)N2C` (stereo not drawn) [Compound 40, 4-((9-cyclopentyl-7,7-difluoro-5-methyl-6-oxo-6,7,8,9-tetrahydro-5H-pyrimido[4,5-b][1,4]diazepin-2-yl)amino)-N-(4-(2-(4-(4-((2,6-dioxopiperidin-3-yl)amino)-2-fluoro-5-methoxyphenyl)piperazin-1-yl)ethyl)piperidin-1-yl)-3-methoxybenzamide], the figures for the 50% inhibitory concentration (IC50) in the assay on NCI-H69 cell line, in the assay on NCI-H526 cell line and in the assay on MRC-5 cell line were less than 30 nM, less than 30 nM and more than 10000 nM, respectively. In addition, at PLK1, the “Activity: ratio” value is given as “+++ (+++: <0.3)”.

For the molecule `CCN1CC(F)(F)C(=O)N(C)c2cnc(Nc3ccc(C(=O)NN4CCC(CCN5CCN(c6cc(OC)c(NC7CCC(=O)NC7=O)cc6F)CC5)CC4)cc3OC)nc21` (stereo not drawn) [Compound 41, N(4-(2-(4-(4-((2,6-dioxopiperidin-3-yl)amino)-2-fluoro-5-methoxyphenyl)piperazin-1-yl)ethyl)piperidin-1-yl)-4-((9-ethyl-7,7-difluoro-5-methyl-6-oxo-6,7,8,9-tetrahydro-5H-pyrimido[4,5-b][1,4]diazepin-2-yl)amino)-3-methoxybenzamide], the IC50 in the assay on NCI-H69 cell line was less than 30 nM; in the assay with NCI-H526 cell line it was less than 30 nM; in the assay with MRC-5 cell line it was more than 10000 nM. Also, the “Activity: ratio” value at PLK1 is given as “++ (++: <0.5)”.

As to `COc1cc(C(=O)NN2CCC(CCN3CCN(c4cc(OC)c(NC5CCC(=O)NC5=O)cc4F)CC3)CC2)c(F)cc1Nc1ncc2c(n1)N(C1CCCC1)CC(F)(F)C(=O)N2C` (stereo not drawn) [Compound 42, 4-((9-cyclopentyl-7,7-difluoro-5-methyl-6-oxo-6,7,8,9-tetrahydro-5H-pyrimido[4,5-b][1,4]diazepin-2-yl)amino)-N-(4-(2-(4-(4-((2,6-dioxopiperidin-3-yl)amino)-2-fluoro-5-methoxyphenyl)piperazin-1-yl)ethyl)piperidin-1-yl)-2-fluoro-5-methoxybenz amide], the concentration for half-maximal inhibition (IC50) with NCI-H69 cell line was less than 50 nM; in the assay on NCI-H526 cell line it was less than 30 nM; in the assay with MRC-5 cell line, more than 10000 nM. The “Activity: ratio” value at PLK1 is listed as “++ (++: <0.5)”.

On to `COc1cc(C(=O)NN2CCC(CCN3CCN(c4cc(OC)c(NC5CCC(=O)NC5=O)cc4F)CC3)CC2)c(F)cc1Nc1ncc2c(n1)N(C(C)C)CC(F)(F)C(=O)N2C` (stereo not drawn) [Compound 43, 4-((7,7-difluoro-9-isopropyl-5-methyl-6-oxo-6,7,8,9-tetrahydro-5H-pyrimido[4,5-b][1,4]diazepin-2-yl)amino)-N-(4-(2-(4-(4-((2,6-dioxopiperidin-3-yl)amino)-2-fluoro-5-methoxyphenyl)piperazin-1-yl)ethyl)piperidin-1-yl)-2-fluoro-5-methoxybenzamide], for which the 50% inhibitory concentration (IC50) was less than 30 nM in the assay with NCI-H69 cell line, less than 30 nM in the assay on NCI-H526 cell line and more than 10000 nM in the assay with MRC-5 cell line. Moreover, on PLK1, the “Activity: ratio” value is on record as “++ (++: <0.5)”.

With `COc1cc(N2CCN(CCC3CCN(NC(=O)c4ccc(Nc5ncc6c(n5)N(C5CCCC5)CC(F)(F)C(=O)N6C)c(OC)c4F)CC3)CC2)c(F)cc1NC1CCC(=O)NC1=O` (stereo not drawn) [Compound 44, 4-((9-cyclopentyl-7,7-difluoro-5-methyl-6-oxo-6,7,8,9-tetrahydro-5H-pyrimido[4,5-b][1,4]diazepin-2-yl)amino)-N-(4-(2-(4-(4-((2,6-dioxopiperidin-3-yl)amino)-2-fluoro-5-methoxyphenyl)piperazin-1-yl)ethyl)piperidin-1-yl)-2-fluoro-3-methoxybenz amide], the 50% inhibitory concentration (IC50) with NCI-H69 cell line was less than 100 nM; with NCI-H526 cell line, less than 50 nM; with MRC-5 cell line, more than 10000 nM. Also, the “Activity: ratio” value on PLK1 is listed as “+++ (+++: <0.3)”.

For the molecule `COc1cc(N2CCN(CCC3CCN(NC(=O)c4cc(F)c(Nc5ncc6c(n5)N(C(C)C)CC(F)(F)C(=O)N6C)cc4OC)CC3)CC2)c(F)cc1NC1CCC(=O)NC1=O` (stereo not drawn) [Compound 45, 4-((7,7-difluoro-9-isopropyl-5-methyl-6-oxo-6,7,8,9-tetrahydro-5H-pyrimido[4,5-b][1,4]diazepin-2-yl)amino)-N-(4-(2-(4-(4-((2,6-dioxopiperidin-3-yl)amino)-2-fluoro-5-methoxyphenyl)piperazin-1-yl)ethyl)piperidin-1-yl)-5-fluoro-2-methoxybenzamide], the concentration for half-maximal inhibition (IC50) in the assay on NCI-H69 cell line is less than 200 nM; in the assay with NCI-H526 cell line it was less than 200 nM; with MRC-5 cell line it was more than 10000 nM. Also, the “Activity: ratio” value at PLK1 is reported as “++ (++: <0.5)”.

For `COc1cc(C(=O)NN2CCC(CCN3CCN(c4cc(OC)c(NC5CCC(=O)NC5=O)cc4F)CC3)CC2)ncc1Nc1ncc2c(n1)N(C(C)C)CC(F)(F)C(=O)N2C` (stereo not drawn) [Compound 46, 5-((7,7-difluoro-9-isopropyl-5-methyl-6-oxo-8H-pyrimido[4,5-b][1,4]diazepin-2-yl)amino)-N-(4-(2-(4-(4-((2,6-dioxo-3-piperidyl)amino)-2-fluoro-5-methoxy-phenyl)piperazin-1-yl)ethyl)-1-piperidyl)-4-methoxy-pyridine-2-carboxamide], the results for the IC50 in the assay on NCI-H69 cell line, in the assay on NCI-H526 cell line and in the assay with MRC-5 cell line were less than 100 nM, less than 50 nM and more than 10000 nM, respectively. In addition, the “Activity: ratio” value on PLK1 is listed as “++ (++: <0.5)”.

For `COc1cc(C(=O)NN2CCC(CCN3CCN(c4cc(OC)c(NC5CCC(=O)NC5=O)cc4F)CC3)CC2)ncc1Nc1ncc2c(n1)N(C1CCCC1)CC(F)(F)C(=O)N2C` (stereo not drawn) [Compound 47, 5-((9-cyclopentyl-7,7-difluoro-5-methyl-6-oxo-6,7,8,9-tetrahydro-5H-pyrimido[4,5-b][1,4]diazepin-2-yl)amino)-N-(4-(2-(4-(4-((2,6-dioxopiperidin-3-yl)amino)-2-fluoro-5-methoxyphenyl)piperazin-1-yl)ethyl)piperidin-1-yl)-4-methoxypicolinamide], the figures for the half-maximal inhibitory concentration (IC50) with NCI-H69 cell line, with NCI-H526 cell line and with MRC-5 cell line were less than 50 nM, less than 50 nM and more than 10000 nM, respectively. The “Activity: ratio” value at PLK1 is “++ (++: <0.5)”.

The values are drawn from patent US20260273072A1, “NOVEL PLK1 DEGRADATION INDUCING COMPOUND” (UPPTHERA, INC., priority 2023, published 2026).
